Experimental data: US9199922B2, “Dihalophenoxyphenylamidines and use thereof as fungicides” (BAYER INTELLECTUAL PROPERTY GMBH, priority 2007, dated 2015)
Where two headings read alike, the source gives them in different places.

Test: logP determination (acidic / neutral)
Assay type: physicochemical
[1] = pH 2.3, read-out: log P (pH 2.3)

logP [1] | log P (pH 2.3) (pH 2.3) | logP acidic | logP neutral (neutral) | logP (neutral, read-out: logP neutral) | Structure (SMILES)
3.51 | – | – | – | – | Cc1cc(Oc2ccc(Cl)c(Cl)c2)c(C)cc1N [4-(3,4-Dichlorophenoxy)-2,5-dimethylaniline]
– | 5.19 | – | – | – | Cc1cc([N+](=O)[O-])c(C)cc1Oc1ccc(Cl)c(Cl)c1 [4-(3,4-Dichlorophenoxy)-2,5-dimethylnitrobenzene]
– | – | 2.37 | 6.2 | – | CCN(C)C=Nc1cc(C)c(Oc2ccc(F)c(F)c2)cc1C [Compound 2]
– | – | 2.29 | 5.8 | – | CCN(C)C=Nc1cc(C)c(Oc2cc(F)cc(Br)c2)cc1C [Compound 3]
– | – | 2.5 | 6 | – | CCN(C)C=Nc1cc(C)c(Oc2cc(Br)cc(Br)c2)cc1C [Compound 4]
– | – | 2.62 | 6.4 | – | Cc1cc(Oc2cc(Br)cc(Br)c2)c(C)cc1N=CN(C)C(C)C [Compound 5]
– | – | 2.56 | 6.4 | – | CCN(C)C=Nc1cc(C)c(Oc2cc(Cl)cc(Br)c2)cc1C [Compound 6]
– | – | 2.7 | 6.8 | – | Cc1cc(Oc2cc(Cl)cc(Br)c2)c(C)cc1N=CN(C)C(C)C [Compound 7]
– | – | 2.21 | 5.6 | – | CCN(C)C=Nc1cc(C)c(Oc2cc(F)cc(Cl)c2)cc1C [Compound 8]
– | – | 2.42 | 6.3 | – | Cc1cc(Oc2cc(F)cc(Cl)c2)c(C)cc1N=CN1CCCCC1 [Compound 9]
– | – | 2.26 | 5.6 | – | Cc1cc(Oc2cc(F)cc(Cl)c2)c(C)cc1N=CN1CCCC1 [Compound 10]
– | – | 2.39 | 6.1 | – | CCCN(C)C=Nc1cc(C)c(Oc2cc(F)cc(Cl)c2)cc1C [Compound 11]
– | – | 2.55 | 6.5 | – | Cc1cc(Oc2cc(F)cc(Br)c2)c(C)cc1N=CN1CCCCC1 [Compound 12]
– | – | 2.37 | 5.7 | – | CCN(C)C=Nc1cc(C)c(Oc2ccc3c(c2)CCCC3)cc1C [Compound 13]
– | – | 2.37 | 7.4 | – | CCCN(C)C=Nc1cc(C)c(Oc2cc(F)cc(Br)c2)cc1C [Compound 14]
– | – | 2.23 | 6.1 | – | CCN(C)C=Nc1cc(C)c(Oc2ccc(Cl)c(Br)c2)cc1C [Compound 15]
– | – | 2.66 | 6.9 | – | Cc1cc(Oc2ccc(Cl)c(Br)c2)c(C)cc1N=CN1CCCCC1 [Compound 16]
– | – | 2.64 | 6.6 | – | CCCN(C)C=Nc1cc(C)c(Oc2ccc(Cl)c(Br)c2)cc1C [Compound 17]
– | – | 2.56 | 6.6 | – | Cc1cc(Oc2ccc(Cl)c(Br)c2)c(C)cc1N=CN1CCCC1 [Compound 18]

logP [1] | log P (pH 2.3) (pH 2.3) | logP acidic | logP neutral (neutral) | logP (neutral, read-out: logP neutral) | Structure (SMILES)
– | – | 2.4 | – | – | CCN(C)C=Nc1cc(C)c(Oc2cc(F)cc(I)c2)cc1C [Compound 19]
– | – | 2.6 | 6.8 | – | Cc1cc(Oc2cc(F)cc(I)c2)c(C)cc1N=CN1CCCCC1 [Compound 21]
– | – | 2.46 | 6.6 | – | Cc1cc(Oc2cc(F)cc(I)c2)c(C)cc1N=CN1CCCC1 [Compound 22]
– | – | 2.29 | 5.7 | – | CCN(C)C=Nc1cc(C)c(Oc2ccc(F)c(Br)c2)cc1C [Compound 23]
– | – | 2.4 | 6.2 | – | Cc1cc(Oc2ccc(Cl)c(I)c2)c(C)cc1N=CN(C)C(C)C [Compound 24]
– | – | 2.29 | – | – | CCN(C)C=Nc1cc(C)c(Oc2ccc(Cl)c(I)c2)cc1C [Compound 25]
– | – | 2.52 | – | – | Cc1cc(Oc2ccc(Cl)c(I)c2)c(C)cc1N=CN1CCCCC1 [Compound 26]
– | – | 2.67 | 6.1 | – | CCN(C)C=Nc1cc(C)c(Oc2ccc(Br)c(I)c2)cc1C [Compound 27]
– | – | 2.91 | 6.9 | – | CCCN(C)C=Nc1cc(C)c(Oc2cc(F)cc(Br)c2)cc1C [Compound 28]
– | – | 2.59 | 5.8 | – | Cc1cc(Oc2cc(F)cc(Br)c2)c(C)cc1N=CN1CC(C)OC(C)C1 (stereo not shown) [Compound 29]
2.48 | – | – | – | 6.07 | CCN(C)C=Nc1cc(C)c(Oc2ccc(Cl)c(Cl)c2)cc1C [Compound 30, N-Ethyl-N-methyl-N′-[4-(3,4-dichlorophenoxy)-2,5-dimethylphenyl]formamidine]
– | – | 2.39 | – | – | Cc1cc(Oc2ccc(Br)c(F)c2)c(C)cc1N=CN1CCCCC1 [Compound 31]
– | – | 2.2 | – | – | CCN(C)C=Nc1cc(C)c(Oc2ccc(Br)c(F)c2)cc1C [Compound 32]
– | – | 2.04 | 5.54 | – | CCCN(C)C=Nc1cc(C)c(Oc2cc(F)cc(F)c2)cc1C [Compound 33]
– | – | 2.03 | 5.79 | – | Cc1cc(Oc2cc(F)cc(F)c2)c(C)cc1N=CN1CCCCC1 [Compound 35]
– | – | 2.24 | 6.3 | – | C=CCN(C)C=Nc1cc(C)c(Oc2ccc(Br)c(Br)c2)cc1C [Compound 37]
– | – | 2.45 | 6.62 | – | CCCN(C)C=Nc1cc(C)c(Oc2ccc(Br)c(Br)c2)cc1C [Compound 38]
– | – | 2.48 | 6.93 | – | Cc1cc(Oc2ccc(Br)c(Br)c2)c(C)cc1N=CN1CCCCC1 [Compound 39]
– | – | 2.25 | – | – | Cc1cc(Oc2cc(F)cc(Br)c2)c(C)cc1N=CN(C)CC1CC1 [Compound 40]

Structure (SMILES) | logP [1] | log P (pH 2.3) (pH 2.3) | logP acidic | logP neutral (neutral) | logP (neutral, read-out: logP neutral)
CCCN(C)C=Nc1cc(C)c(Oc2cc(F)cc(I)c2)cc1C [Compound 20] | – | – | 2.61 | 6.6 | –
